Measurements reported in patent US20220054643A1, “SAPONIN CONJUGATED TO EPITOPE-BINDING PROTEINS” (priority 2018, published 2022).

Tests used:
[1] = test system: HeLa cells; test: cell viability assay (MTS); type: cell-based, human; conditions: for concentration above which toxicity is seen as single compound: without EGFdianthin
Description: (§1) After treatment the cells were incubated for 72 hr at 37° C. before the cell viability was determined by a MTS-assay, performed according to the manufacturer's instruction (CellTiter 96® AQueous One Solution Cell Proliferation Assay, Promega). Briefly, the MTS solution was diluted 20× in DMEM without phenol red (PAN-Biotech GmbH) supplemented with 10% FBS (PAN-Biotech GmbH). The cells were washed once with 200 μL PBS per well, after which 100 μL diluted MTS solution was added per well.
(§2) The plate was incubated for approximately 20-30 minutes at 37° C. Subsequently, the optical density at 492 nm was measured on a Thermo Scientific Multiskan FC plate reader (Thermo Scientific). For quantification the background signal of ‘medium only’ wells was subtracted from all other wells, before the ratio of untreated/treated cells was calculated, by dividing the background corrected signal of untreated wells over the background corrected signal of the treated wells.

[2] = test system: A431 cells; type: cell-based, human; conditions: without EGFdianthin
Description: as §1, §2

[3] = test system: A2058 cells; test: cell viability assay (MTS); type: cell-based, human; conditions: without EGFdianthin
Description: as §1, §2

[4] = pH dependent hydrolysis of the hydrazone bond (MALDI-TOF-MS); type: physicochemical; conditions: HCl solution at pH 3; MALDI-TOF-MS at two points in time
[5] = test system: HER14 cells; test: viability assay (MTT) with HER14 cells; type: cell-based; conditions: 0.1 nM dianthin-EGF in the presence of SA1641
Description: To test the efficacy of the invention, we conducted a viability assay with HER14 cells. These cells are fibroblasts stably transfected with the human epidermal growth factor receptor and therefore target cells for the targeted toxin dianthin-EGF. HER14 cells (2,000 cells/100 μL/well) were seeded into wells of 96-well-cell culture plates and incubated for 24 h in DMEM medium supplemented with 10% fetal calf serum and 1% penicillin/streptomycin at 37° C., 5% CO2 and 98% humidity. The different test substances (see results and FIG. 59) were then added in triplicates in a volume of 25 μL and supplemented with further 25 μL of medium. After an incubation of 72 h, 30 μL 3-(4,5-dimethylthiazol-2-yl)-2,5-diphenyltetrazolium bromide (0.5 mg/mL in water) was added per well and incubated for 2 h. Thereafter, the medium was carefully removed and replaced by an aqueous solution containing 10% (v/v) isopropanol, 5% (w/v) sodium dodecyl sulfate and 400 mM HCl, and incubated for 5 min. Solubilized formazan was photometrically quantitated at […] in a microplate reader (Spectra MAX 340 PC, Molecular Devices, Sunnyvale, Calif., USA). Untreated cells were normalized to 1 and all samples referred to the untreated control. Significance was determined by unpaired two-sample t-tests.

[6] = test system: SK-BR-3, JIMT-1, MDA-MB-468, A431, CaSki, HeLa, A2058; test: control treatments, relative cell viability on various cancer cell lines; type: cell-based, human; conditions: wide range of concentrations, up to 100.000 pM
Description: as §1, §2

Row | Compound | concentration above which toxicity is seen as single compound [1] | concentration above which toxicity is seen as single compound [2] | concentration above which toxicity is seen as single compound [3] | further results
1 | CC(=O)OC1C(C)OC(OC2C(C)OC(OC(=O)[C@]34CCC(C)(C)CC3C3=CCC5[C@@]6(C)CC[C@H](OC7OC(C(=O)O)C(O)C(OC8OCC(O)C(O)C8O)C7OC7OC(CO)C(O)C(O)C7O)[C@@](C)(C=O)C6CC[C@@]5(C)[C@]3(C)C[C@H]4O)C(OC3OC(C)C(OC4OCC(O)C(OC5OC(CO)C(O)C(O)C5O)C4O)C(O)C3O)C2O)C(O)C1OC1OCC(O)C(O)C1O (stereo partly shown) [SO1861] | strong cell viability reduction | strong cell viability reduction | strong cell viability reduction | –
2 | CC(=O)OC1C(C)OC(OC2C(C)OC(OC(=O)[C@]34CCC(C)(C)CC3C3=CCC5[C@@]6(C)CC[C@H](OC7OC(C(=O)O)C(O)C(OC8OCC(O)C(O)C8O)C7OC7OC(CO)C(O)C(O)C7O)[C@@](C)(/C=N/NC(=O)CCCCCN7C(=O)C=CC7=O)C6CC[C@@]5(C)[C@]3(C)C[C@H]4O)C(OC3OC(C)C(OC4OCC(O)C(OC5OC(CO)C(O)C(O)C5O)C4O)C(O)C3O)C2O)C(O)C1OC1OCC(O)C(O)C1O (stereo partly shown) [SO1861-EMCH] | > 25.000 nM | > 25.000 nM | > 25.000 nM | hydrolysis of the hydrazone bond [4]: gets cleaved
3 | C[C@@H]1O[C@@H](O[C@H]2[C@H](OC(=O)[C@]34CCC(C)(C)C[C@H]3C3=CC[C@@H]5[C@@]6(C)CC[C@H](O[C@H]7O[C@H](C(=O)O)[C@@H](O)[C@H](O[C@@H]8OC[C@@H](O)[C@H](O)[C@H]8O)[C@H]7O[C@@H]7O[C@H](CO)[C@H](O)[C@H](O)[C@H]7O)[C@@](C)(C=O)[C@@H]6CC[C@@]5(C)[C@]3(C)CC4)O[C@H](C)[C@H](O[C@@H]3O[C@H](C)[C@@H](O)[C@H](O)[C@H]3O)[C@@H]2O)[C@H](O)[C@H](O)[C@H]1O[C@@H]1OC[C@@H](O)[C@H](O[C@@H]2OC[C@@H](O)[C@H](O)[C@H]2O)[C@H]1O [SA1641] | – | – | – | cell viability [5]: death of all cells
4 | CCN(CC)CCCC(C)Nc1ccnc2cc(Cl)ccc12 (stereo not shown) [chloroquine, reference compound] | – | – | – | effect on SO1861-mediated endosomal escape of dianthin-EGF and cell killing ([1]; SO1861 + dianthin-EGF + 500 nM chloroquine / 500 nM PAMAM (native, thiolated, PEGylated) / 667 nM dendron): inhibit the SO1861-mediated endosomal escape
5 | saporin | – | – | – | influence on relative cell viability [6]: do not or hardly have any influence on cell viability
